Assay results reported in patent US20230393122A1 (priority 2022, published 2023).
Read-outs that look alike come from different tables or passages of the source.

Experiments:
Type in all cases: cell-based
SARS-CoV-2 Delta variant [1] = assay: Viral load reduction assay in EPSC-derived eSTB cells (qRT-PCR of supernatant viral copies); settings: for IC50: read-out: IC50 for Delta variant in eSTBs
[2] = system: SARS-CoV-2 Omicron variant; assay: as above; settings: for IC50: read-out: IC50 for Omicron variant in eSTBs
SARS-CoV-2 Delta variant [3] = assay: Viral load reduction assay in naïve-eSTB cells; settings: compared with EPSC-eSTBs
[4] = system: SARS-CoV-2 Omicron variant; assay: Viral load reduction assay in naïve-eSTB cells; settings: compared with EPSC-eSTBs
[5] = Severe acute respiratory syndrome coronavirus 2, 48 h

## CC(C)C[C@H](NC(=O)OCc1ccccc1)C(=O)N[C@@H](CC1CCNC1=O)C(O)S(=O)(=O)O (some centres unmarked) [GC376]
SARS-CoV-2 Delta variant [1]
  IC50: 25.5 ± 3.2 nM
[2]
  IC50: 31.4 ± 4.1 nM

## CC(C)C[C@H](NC(=O)OCc1ccccc1)C(=O)N[C@@H](C[C@@H]1CCNC1=O)C(O)S(=O)(=O)[O-].[Na+] (some centres unmarked) [GC376]
SARS-CoV-2 Delta variant [1]; EPSC-derived eSTB cells
  Viral copy in the supernatant, Delta (FIG. 17B): dose-dependent inhibition
[2]; EPSC-derived eSTB cells
  Viral copy in the supernatant, Omicron (FIG. 17B): dose-dependent inhibition
SARS-CoV-2 Delta variant [3]
  IC50 against Delta variant in naïve-eSTBs: similarly low
[4]
  IC50 against Omicron variant in naïve-eSTBs: similarly low

## CCC(CC)COC(=O)[C@H](C)N[P@](=O)(OC[C@H]1O[C@@](C#N)(c2ccc3c(N)ncnn23)[C@H](O)[C@@H]1O)Oc1ccccc1 [remdesivir]
SARS-CoV-2 Delta variant [1]; [5]
  IC50: 5.5 ± 1.2 nM
[2]; [5]
  IC50: 4.1 ± 1.5 nM
